# Reference: patent US7442393B2, “Herbal extracts of Salicornia species, process of preparation thereof, use thereof against tuberculosis” (priority 2003, dated 2008)
# Tested on: M. tuberculosis H37Rv
# Assay: In vivo screening of antitubercular activity in infected mice model of experimental tuberculosis
# Set-up: species or system Female swiss mice
# Settings: 25 mg/kg body weight for 10 days after infection
smiles,measurement,value
C[C@@H]1CN(c2c(F)c(N)c3c(=O)c(C(=O)O)cn(C4CC4)c3c2F)C[C@H](C)N1 [sparfloxicin],general health and body weight of infected mice,"healthy, gained weight"
same,mortality of infected mice,none of the mice died
